Measurements from PubChem BioAssay AID1963429 (Molecular Pharmacology Branch, DTP, NCI, 2024).
Several values for one entry are separate records, joined by “and”; a condition that tells them apart may be missing. Equal values may be shown once.

Tested on: 126254-015-R-J1-PDC complex spheroid growth, % test/control
Assay: Anticancer human tumor 126254-015-R-J1-PDC patient-derived soft tissue sarcoma cell line growth inhibition [Asc]
Details: for viability, T/C: stronger effect = lower value
Procedure, shortened: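 Stromal components (HUVEC and hMSC) are co-assembled with the cancer cells into multicellular spheroids. Drugs are then added singly or paired, at concentrations falling by half-log increments from a clinically achievable maximum, capped at 10 microM without known Cmax.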

[1] = curve of first compound, second compound 0.1 µM
[2] = curve of first compound, second compound 0.316 µM
[3] = curve of first compound, second compound 1 µM
[4] = second compound 0.1 µM, first compound 0.00316 µM
[5] = second compound 0.1 µM, first compound 0.01 µM
[6] = second compound 0.1 µM, first compound 0.0316 µM
[7] = second compound 0.1 µM, first compound 0.1 µM
[8] = second compound 0.1 µM, first compound 0.316 µM
[9] = second compound 0.1 µM, first compound 1 µM
[10] = second compound 0.316 µM, first compound 0.00316 µM
[11] = second compound 0.316 µM, first compound 0.01 µM
[12] = second compound 0.316 µM, first compound 0.0316 µM
[13] = second compound 0.316 µM, first compound 0.1 µM
[14] = second compound 0.316 µM, first compound 0.316 µM
[15] = second compound 0.316 µM, first compound 1 µM
[16] = second compound 1 µM, first compound 0.00316 µM
[17] = second compound 1 µM, first compound 0.01 µM
[18] = second compound 1 µM, first compound 0.0316 µM
[19] = second compound 1 µM, first compound 0.1 µM
[20] = second compound 1 µM, first compound 0.316 µM
[21] = second compound 1 µM, first compound 1 µM
[22] = curve of first compound, second compound 0.01 µM
[23] = curve of first compound, second compound 0.0316 µM
[24] = second compound 0.01 µM, first compound 0.0316 µM
[25] = second compound 0.01 µM, first compound 0.1 µM
[26] = second compound 0.01 µM, first compound 0.316 µM
[27] = second compound 0.01 µM, first compound 1 µM
[28] = second compound 0.0316 µM, first compound 0.0316 µM
[29] = second compound 0.0316 µM, first compound 0.1 µM
[30] = second compound 0.0316 µM, first compound 0.316 µM
[31] = second compound 0.0316 µM, first compound 1 µM
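Further: spheroids exposed to compound for seven days.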
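Wherever viability, T/C is given: 100% = DMSO vehicle control wells.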

With `COc1c(OCCCN2CCOCC2)ccc2c3n(c(=NC(=O)c4cnc(N)nc4)nc12)CCN3` + Cc1c(S(C)(=O)=O)c(-c2cc(F)cc(N3CCN(c4ccc(NS(=O)(=O)c5ccc(NC(CCN6CCC(C(=O)OCCCP(=O)(O)O)CC6)CSc6ccccc6)c(S(=O)(=O)C(F)(F)F)c5)cc4)CC3)c2)c(-c2ccc(Cl)cc2)n1C(C)C the IC50 [1] was 48.5 nM, the IC50 [2] was 43.8 nM and the IC50 [3] was 47.9 nM. The IC50 (curve of first compound, second compound 3.16 µM) was 42 nM, the IC50 (curve of first compound, second compound 10 µM) was 45.3 nM and the viability, T/C [4] was 96.5%. It also gave a viability, T/C [5] of 84.5%, a viability, T/C [6] of 63.5% and a viability, T/C [7] of 28.3%. It also gave a viability, T/C [8] of 16%, a viability, T/C [9] of 8.08% and a viability, T/C [10] of 88%. For the same molecule, the viability, T/C [11] was 76.6%, the viability, T/C [12] was 59.1% and the viability, T/C [13] was 29.7%. It also gave a viability, T/C [14] of 15.3%, a viability, T/C [15] of 8.05% and a viability, T/C [16] of 83.7%. For the same molecule, the viability, T/C [17] was 75.5%, the viability, T/C [18] was 61.9% and the viability, T/C [19] was 30.4%. For the same molecule, the viability, T/C [20] was 14.9%, the viability, T/C [21] was 8.15% and the viability, T/C (second compound 3.16 µM, first compound 0.00316 µM) was 77.5%. For the same molecule, the viability, T/C (second compound 3.16 µM, first compound 0.01 µM) was 77.5%, the viability, T/C (second compound 3.16 µM, first compound 0.0316 µM) was 54.9% and the viability, T/C (second compound 3.16 µM, first compound 0.1 µM) was 30.1%. The viability, T/C (second compound 3.16 µM, first compound 0.316 µM) was 14.3%, the viability, T/C (second compound 3.16 µM, first compound 1 µM) was 8.66% and the viability, T/C (second compound 10 µM, first compound 0.00316 µM) was 84.2%. The viability, T/C (second compound 10 µM, first compound 0.01 µM) was 87.7%, the viability, T/C (second compound 10 µM, first compound 0.0316 µM) was 55.6% and the viability, T/C (second compound 10 µM, first compound 0.1 µM) was 30.6%. For the same molecule, the viability, T/C (second compound 10 µM, first compound 0.316 µM) was 15.8% and the viability, T/C (second compound 10 µM, first compound 1 µM) was 7.09%.

In the case of `Cn1ncnc1[C@H]1c2n[nH]c(=O)c3cc(F)cc(c23)N[C@@H]1c1ccc(F)cc1`, the viability, T/C (compound 0.000316 µM) is reported as 93.2% and 98% and 104%, the viability, T/C (compound 0.001 µM) is reported as 95.6% and 106% and 103% and the viability, T/C (compound 0.00316 µM) is reported as 90.9% and 91% and 86.1%. The viability, T/C (compound 0.01 µM) was 80.1% and 88.7% and 90.3%, the viability, T/C (compound 0.0316 µM) was 91.6% and 90% and 79.6% and the viability, T/C (compound 0.1 µM) was 80.9% and 89.7% and 70.5%. For the same molecule, the IC50 (curve of compound) was > 100 nM.

With `C#Cc1c(F)ccc2cc(O)cc(-c3ncc4c(N5CC6CCC(C5)N6)nc(OCC56CCCN5CC(F)C6)nc4c3F)c12` (stereo not given) + CNC(C)C(=O)NC1CN(S(=O)(=O)c2cccc(S(=O)(=O)N3CCC4CCC(C(=O)NC(c5ccccc5)c5ccccc5)N4C(=O)C(NC(=O)C(C)NC)C3)c2)CCC2CCC(C(=O)NC(c3ccccc3)c3ccccc3)N2C1=O the IC50 [22] was > 10000 nM, the IC50 [23] was 7580 nM and the IC50 [1] was 3970 nM. It also gave an IC50 [2] of 8980 nM, an IC50 [3] of 895 nM and a viability, T/C [24] of 77.7%. For the same molecule, the viability, T/C [25] was 81.8%, the viability, T/C [26] was 78.5% and the viability, T/C [27] was 73%. For the same molecule, the viability, T/C (second compound 0.01 µM, first compound 3.16 µM) was 81.7%, the viability, T/C (second compound 0.01 µM, first compound 10 µM) was 63.7% and the viability, T/C [28] was 69.6%. For the same molecule, the viability, T/C [29] was 69.4%, the viability, T/C [30] was 71.5% and the viability, T/C [31] was 64.8%. For the same molecule, the viability, T/C (second compound 0.0316 µM, first compound 3.16 µM) was 61.6%, the viability, T/C (second compound 0.0316 µM, first compound 10 µM) was 46.4% and the viability, T/C [6] was 68%. The viability, T/C [7] was 62.4%, the viability, T/C [8] was 65.9% and the viability, T/C [9] was 54.1%. For the same molecule, the viability, T/C (second compound 0.1 µM, first compound 3.16 µM) was 55.6%, the viability, T/C (second compound 0.1 µM, first compound 10 µM) was 40.5% and the viability, T/C [12] was 58.4%. The viability, T/C [13] was 58.7%, the viability, T/C [14] was 55.6% and the viability, T/C [15] was 58.4%. It also gave a viability, T/C (second compound 0.316 µM, first compound 3.16 µM) of 50.6%, a viability, T/C (second compound 0.316 µM, first compound 10 µM) of 48.1% and a viability, T/C [18] of 55.8%. The viability, T/C [19] was 49.5%, the viability, T/C [20] was 56.1% and the viability, T/C [21] was 47.8%. The viability, T/C (second compound 1 µM, first compound 3.16 µM) was 46.7% and the viability, T/C (second compound 1 µM, first compound 10 µM) was 40.9%.

In the case of `CNC(C)C(=O)NC1CN(S(=O)(=O)c2cccc(S(=O)(=O)N3CCC4CCC(C(=O)NC(c5ccccc5)c5ccccc5)N4C(=O)C(NC(=O)C(C)NC)C3)c2)CCC2CCC(C(=O)NC(c3ccccc3)c3ccccc3)N2C1=O` (stereo not given), the viability, T/C (compound 0.00316 µM) is reported as 94.8% and 99.9%, the viability, T/C (compound 0.01 µM) is reported as 86.8% [middle of 15 runs] and the viability, T/C (compound 0.0316 µM) is reported as 76.6% [middle of 15 runs]. The viability, T/C (compound 0.1 µM) was 64.3% [middle of 15 runs], the viability, T/C (compound 0.316 µM) was 59.9% [middle of 15 runs] and the viability, T/C (compound 1 µM) was 55.5% [middle of 15 runs]. The IC50 (compound alone, run of 10/03/2022) was > 1000 nM and the IC50 (curve of compound) was > 1000 nM and 845 nM.

`CCN1CCN(Cc2ccc(Nc3ncc(F)c(-c4cc(F)c5nc(C)n(C(C)C)c5c4)n3)nc2)CC1` + CNC(C)C(=O)NC1CN(S(=O)(=O)c2cccc(S(=O)(=O)N3CCC4CCC(C(=O)NC(c5ccccc5)c5ccccc5)N4C(=O)C(NC(=O)C(C)NC)C3)c2)CCC2CCC(C(=O)NC(c3ccccc3)c3ccccc3)N2C1=O was tested, and the IC50 [22] was > 1000 nM, the IC50 [23] was > 1000 nM and the IC50 [1] was > 1000 nM. For the same molecule, the IC50 [2] was > 1000 nM, the IC50 [3] was > 1000 nM and the viability, T/C (second compound 0.01 µM, first compound 0.00316 µM) was 94.4%. The viability, T/C (second compound 0.01 µM, first compound 0.01 µM) was 96.4%, the viability, T/C [24] was 91.5% and the viability, T/C [25] was 82.5%. For the same molecule, the viability, T/C [26] was 97%, the viability, T/C [27] was 91.6% and the viability, T/C (second compound 0.0316 µM, first compound 0.00316 µM) was 71%. It also gave a viability, T/C (second compound 0.0316 µM, first compound 0.01 µM) of 74.4%, a viability, T/C [28] of 77.8% and a viability, T/C [29] of 80.1%. The viability, T/C [30] was 81.7%, the viability, T/C [31] was 77.6% and the viability, T/C [4] was 61.4%. The viability, T/C [5] was 68.7%, the viability, T/C [6] was 62.9% and the viability, T/C [7] was 69%. It also gave a viability, T/C [8] of 75.9%, a viability, T/C [9] of 79.6% and a viability, T/C [10] of 57.8%. The viability, T/C [11] was 62.5%, the viability, T/C [12] was 62.4% and the viability, T/C [13] was 67.4%. It also gave a viability, T/C [14] of 65.6%, a viability, T/C [15] of 71.8% and a viability, T/C [16] of 59.2%. For the same molecule, the viability, T/C [17] was 61.5%, the viability, T/C [18] was 65% and the viability, T/C [19] was 52.6%. It also gave a viability, T/C [20] of 57.2% and a viability, T/C [21] of 60.9%.
